Source: PubChem BioAssay AID330 (DTP/NCI, 2004)
Where “and” joins values, the source holds several entries; their conditions need not be identical. Identical values can stand only once. Toxic doses and inconclusive results are not listed. Rule for the calls: active = survival T/C of 150% or more; inactive = T/C below 125% in these data.

Tested on: P388 leukemia ip, CD2F1 mice, survival T/C
Test: NCI In Vivo Anticancer Drug Screen. Data for tumor model P388 Leukemia (intraperitoneal) in CD2F1 (CDF1) mice
Details: endpoint: median survival time, higher = longer survival
How it was run: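 Mice carrying the transplanted tumor received test compound or vehicle. Survival was recorded in each group, and the value is the treated-group measurement divided by that of the vehicle-treated control group.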

[1] = dose: 12.5 mg/kg/injection, schedule: Q01DX005 (ip), vehicle: Klucel (hydroxypropylcellulose) (HPC)
[2] = dose: 25.0 mg/kg/injection, schedule: Q01DX005 (ip), vehicle: Klucel (hydroxypropylcellulose) (HPC)
[3] = dose: 25.0 mg/kg/injection, schedule: Q01DX009 (ip), vehicle: Klucel (hydroxypropylcellulose) (HPC)
[4] = dose: 50.0 mg/kg/injection, schedule: Q01DX009 (ip), vehicle: Klucel (hydroxypropylcellulose) (HPC)
[5] = dose: 100.0 mg/kg/injection, schedule: Q01DX009 (ip), vehicle: Klucel (hydroxypropylcellulose) (HPC)
[6] = dose: 200.0 mg/kg/injection, schedule: Q01DX009 (ip), vehicle: Klucel (hydroxypropylcellulose) (HPC)
[7] = dose: 50.0 mg/kg/injection, schedule: Q01DX009 (ip), vehicle: saline with Tween-80
[8] = dose: 60.0 mg/kg/injection, schedule: Q01DX005 (ip), vehicle: saline with Tween-80
[9] = dose: 120.0 mg/kg/injection, schedule: Q01DX005 (ip), vehicle: saline with Tween-80
[10] = dose: 50.0 mg/kg/injection, schedule: Q01DX005 (ip), vehicle: Klucel (hydroxypropylcellulose) (HPC)
[11] = dose: 100.0 mg/kg/injection, schedule: Q01DX005 (ip), vehicle: Klucel (hydroxypropylcellulose) (HPC)
[12] = dose: 200.0 mg/kg/injection, schedule: Q01DX005 (ip), vehicle: Klucel (hydroxypropylcellulose) (HPC)

Measured: T/C

Cc1cc(N/N=C/c2c(C)n(C)n(-c3ccccc3)c2=O)c2cc3c(cc2n1)OCO3
inactive: dose: 6.25 mg/kg/injection, schedule: Q01DX005 (ip), vehicle: Klucel (hydroxypropylcellulose) (HPC) 103 % of control | [1] 113 % of control | [2] 108 % of control

Cn1c(=S)sc2ccc(S(=O)(=O)C(F)F)cc21
inactive: [3] 103 % of control | [4] 112 % of control | [5] 107 % of control | [6] 108 % of control

Clc1ccc2c(Cl)ncnc2c1
inactive: [7] 104 % of control | dose: 100.0 mg/kg/injection, schedule: Q01DX009 (ip), vehicle: saline with Tween-80 100 % of control | dose: 200.0 mg/kg/injection, schedule: Q01DX009 (ip), vehicle: saline with Tween-80 90 % of control

C=C1C(=O)OC2CC1C(OC(C)=O)CC1(C)OC1CCC1(C)OC1CCC2(C)O (stereo not drawn)
inactive: dose: 6.26 mg/kg/injection, schedule: Q01DX009 (ip), vehicle: Klucel (hydroxypropylcellulose) (HPC) 119 % of control | dose: 12.5 mg/kg/injection, schedule: Q01DX009 (ip), vehicle: Klucel (hydroxypropylcellulose) (HPC) 117 % of control | [3] 123 % of control

COc1cc(C2C3=C(CCCC3=O)Oc3cc4c(cc32)OCO4)cc(OC)c1OC (stereo not drawn)
inactive: [8] 91 % of control | [9] 90 % of control | dose: 240.0 mg/kg/injection, schedule: Q01DX005 (ip), vehicle: saline with Tween-80 98 % of control

O=C1OC(=O)C2C3OC(C(Br)C3Br)C12 (stereo not drawn)
inactive: [10] 102 % of control | [11] 98 % of control

COc1cc(OC)c(C(c2cc3c(cc2O)OCO3)N2CCOCC2)c(OC)c1 (stereo not drawn)
inactive: [8] 118 % of control | [9] 120 % of control

C[C@]12CC[C@H]3[C@@H](CCC4=CC(=O)CC[C@@H]43)[C@@H]1CC[C@@H]2OC(=O)N(CCCl)N=O
inactive: dose: 12.5 mg/kg/injection, schedule: Q01DX009 (ip), vehicle: other 123 % of control | dose: 15.0 mg/kg/injection, schedule: Q01DX009 (ip), vehicle: saline 96 % of control | dose: 15.0 mg/kg/injection, schedule: Q04DX003 (ip), vehicle: saline 100 % of control and 107 % of control | dose: 25.0 mg/kg/injection, schedule: Q01DX005 (ip), vehicle: other 104 % of control | dose: 25.0 mg/kg/injection, schedule: Q01DX009 (ip), vehicle: other 118 % of control | dose: 30.0 mg/kg/injection, schedule: Q01DX009 (ip), vehicle: saline 86 % of control | dose: 30.0 mg/kg/injection, schedule: Q04DX003 (ip), vehicle: saline 101 % of control and 106 % of control and 112 % of control | dose: 50.0 mg/kg/injection, schedule: Q01DX005 (ip), vehicle: other 96 % of control | dose: 60.0 mg/kg/injection, schedule: Q01DX009 (ip), vehicle: saline 91 % of control | dose: 60.0 mg/kg/injection, schedule: Q04DX003 (ip), vehicle: saline 98 % of control and 101 % of control and 120 % of control | dose: 120.0 mg/kg/injection, schedule: Q01DX009 (ip), vehicle: saline with Tween-80 86 % of control | dose: 120.0 mg/kg/injection, schedule: Q01DX009 (ip), vehicle: saline 92 % of control | dose: 120.0 mg/kg/injection, schedule: Q04DX003 (ip), vehicle: saline 102 % of control and 106 % of control

CCCCCCCCCCCCCCCCN(C)CCO
inactive: dose: 12.5 mg/kg/injection, schedule: Q01DX009 (ip), vehicle: saline with Tween-80 104 % of control | dose: 25.0 mg/kg/injection, schedule: Q01DX009 (ip), vehicle: saline with Tween-80 106 % of control | [7] 99 % of control

COc1cc2c(cc1OC)C1C(=O)c3c(O)cc4c(c3OC1CO2)C=CC(C)(C)O4 (stereo not drawn)
inactive: [1] 98 % of control | [2] 100 % of control | [10] 107 % of control | [11] 107 % of control | [12] 111 % of control | dose: 400.0 mg/kg/injection, schedule: Q01DX005 (ip), vehicle: Klucel (hydroxypropylcellulose) (HPC) 111 % of control

Cc1ccc(C(C)C)cc1NC(=O)c1cccnc1
inactive: dose: 50.0 mg/kg/injection, schedule: Q04DX002 (ip), vehicle: Klucel (hydroxypropylcellulose) (HPC) 98 % of control | dose: 100.0 mg/kg/injection, schedule: Q04DX002 (ip), vehicle: Klucel (hydroxypropylcellulose) (HPC) 102 % of control | dose: 200.0 mg/kg/injection, schedule: Q04DX002 (ip), vehicle: Klucel (hydroxypropylcellulose) (HPC) 92 % of control

Cc1nn(-c2ccccc2)nc1CCl
inactive: [10] 101 % of control | [11] 99 % of control | [12] 95 % of control

Cc1ccc(S(=O)(=O)OCCN(CCOS(=O)(=O)c2ccc(C)cc2)S(=O)(=O)c2ccc(C)cc2)cc1
inactive: [4] 108 % of control | [5] 100 % of control | [6] 102 % of control | dose: 400.0 mg/kg/injection, schedule: Q01DX009 (ip), vehicle: Klucel (hydroxypropylcellulose) (HPC) 95 % of control

CC(CO)/[N+]([O-])=N/O (stereo not drawn)
inactive: dose: 6.0 mg/kg/injection, schedule: Q01DX005 (ip), vehicle: Klucel (hydroxypropylcellulose) (HPC) 95 % of control | dose: 12.0 mg/kg/injection, schedule: Q01DX005 (ip), vehicle: Klucel (hydroxypropylcellulose) (HPC) 94 % of control | dose: 24.0 mg/kg/injection, schedule: Q01DX005 (ip), vehicle: Klucel (hydroxypropylcellulose) (HPC) 100 % of control | dose: 48.0 mg/kg/injection, schedule: Q01DX005 (ip), vehicle: Klucel (hydroxypropylcellulose) (HPC) 100 % of control

C=Cc1cc(OCC)c(OC)c2ccc3ccc(OC)c(OC)c3c12
inactive: dose: 100.0 mg/kg/injection, schedule: Q01DX001 (ip), vehicle: Klucel (hydroxypropylcellulose) (HPC) 95 % of control | dose: 200.0 mg/kg/injection, schedule: Q01DX001 (ip), vehicle: Klucel (hydroxypropylcellulose) (HPC) 103 % of control | dose: 400.0 mg/kg/injection, schedule: Q01DX001 (ip), vehicle: Klucel (hydroxypropylcellulose) (HPC) 92 % of control

COc1ccc2c(c1)C1(C)CCCC(C)(COC(C)=O)C1CC2 (stereo not drawn)
inactive: dose: 7.5 mg/kg/injection, schedule: Q01DX009 (ip), vehicle: saline with Tween-80 91 % of control | dose: 15.0 mg/kg/injection, schedule: Q01DX009 (ip), vehicle: saline with Tween-80 91 % of control | dose: 30.0 mg/kg/injection, schedule: Q01DX009 (ip), vehicle: saline with Tween-80 89 % of control

CCN(CC)CCCC(Nc1c2ccc(Cl)cc2nc2ccc(OC)cc12)c1ccc(F)cc1 (stereo not drawn)
inactive: dose: 12.5 mg/kg/injection, schedule: Q01DX005 (ip), vehicle: saline with Tween-80 96 % of control | dose: 25.0 mg/kg/injection, schedule: Q01DX005 (ip), vehicle: saline with Tween-80 98 % of control | dose: 50.0 mg/kg/injection, schedule: Q01DX005 (ip), vehicle: saline with Tween-80 100 % of control and 107 % of control

N#CCN=C(N)NN
inactive: dose: 100.0 mg/kg/injection, schedule: Q04DX003 (ip), vehicle: Klucel (hydroxypropylcellulose) (HPC) 105 % of control | dose: 200.0 mg/kg/injection, schedule: Q04DX003 (ip), vehicle: Klucel (hydroxypropylcellulose) (HPC) 94 % of control | dose: 400.0 mg/kg/injection, schedule: Q04DX003 (ip), vehicle: Klucel (hydroxypropylcellulose) (HPC) 108 % of control

O=[N+]([O-])c1cc(NC(=S)SCc2ccccc2)ccc1Cl
inactive: dose: 50.0 mg/kg/injection, schedule: Q01DX009 (ip), vehicle: saline 108 % of control | dose: 50.0 mg/kg/injection, schedule: Q01DX009 (ip), vehicle: suspension in saline 92 % of control | dose: 100.0 mg/kg/injection, schedule: Q01DX009 (ip), vehicle: saline 115 % of control | dose: 200.0 mg/kg/injection, schedule: Q01DX009 (ip), vehicle: saline 108 % of control | dose: 200.0 mg/kg/injection, schedule: Q01DX009 (ip), vehicle: suspension in saline 92 % of control
